# Measurements from ChEMBL document CHEMBL5241075, “Advancement of chimeric hybrid drugs to cure malaria infection: An overview with special emphasis on endoperoxide pharmacophores” (Eur J Med Chem, 2021).
# Experiments:
# [1] = system: Plasmodium falciparum; test: Antimalarial activity against chloroquine resistant Plasmodium falciparum FcB1 Colombia; assay type: functional, organism-based
# [2] = system: Plasmodium falciparum; test: Antimalarial activity against chloroquine resistant Plasmodium falciparum FcR3 Gambia; assay type: functional, organism-based
# [3] = system: Plasmodium falciparum; test: Antimalarial activity against chloroquine resistant Plasmodium falciparum PaloAlto; assay type: functional, organism-based
# [4] = system: Plasmodium falciparum; test: Antimalarial activity against chloroquine resistant Plasmodium falciparum W2; assay type: functional, organism-based
# [5] = system: Plasmodium falciparum; test: Antimalarial activity against chloroquine resistant Plasmodium falciparum FcM29 Cameron; assay type: functional, organism-based
# [6] = system: Plasmodium falciparum; test: Antimalarial activity against chloroquine sensitive Plasmodium falciparum D6; assay type: functional, organism-based
# [7] = system: Plasmodium falciparum; test: Antimalarial activity against chloroquine sensitive Plasmodium falciparum F32; assay type: functional, organism-based
# [8] = system: Plasmodium vinckei; test: Antimalarial activity against chloroquine resistant Plasmodium vinckei infected in po dosed swiss mouse assessed as reduction in parasitemia; assay type: functional
# [9] = system: Plasmodium vinckei petteri; test: Antimalarial activity against chloroquine sensitive Plasmodium vinckei petteri infected in po dosed swiss mouse assessed as reduction in parasitemia; assay type: functional
# [10] = system: Plasmodium falciparum; test: Antimalarial activity against erythrocytic stage chloroquine sensitive Plasmodium falciparum W2 infected in mouse assessed as reduction in parasitemia at 32 mg/kg/day, po qd measured after 4 days by Giemsa staining based analysis relative to control; assay type: functional; design: scale not given: the % may be the effect or the level left; conditions: time 4 day
# [11] = system: Plasmodium falciparum; test: Antimalarial activity against erythrocytic stage chloroquine sensitive Plasmodium falciparum 3D7 infected in mouse assessed as reduction in parasitemia at 63 mg/kg/day, po qd measured after 4 days by Giemsa staining based analysis relative to control; assay type: functional; design: scale not given: the % may be the effect or the level left; conditions: time 4 day
# [12] = system: Plasmodium falciparum; test: Antimalarial activity against erythrocytic stage chloroquine sensitive Plasmodium falciparum W2 infected in mouse assessed as reduction in parasitemia at 63 mg/kg/day, po qd measured after 4 days by Giemsa staining based analysis; assay type: functional; design: scale not given: the % may be the effect or the level left; conditions: time 4 day
# [13] = system: Plasmodium falciparum; test: Antiplasmodial activity against chloroquine resistant Plasmodium falciparum by HRP2 ELISA analysis; assay type: functional, organism-based
# [14] = system: Plasmodium yoelii nigeriensis; test: Antiplasmodial activity against Plasmodium yoelii nigeriensis infected in po dosed mouse assessed as reduction in parasitemia; assay type: functional
# [15] = system: Plasmodium falciparum; test: Antimalarial activity against chloroquine resistant Plasmodium falciparum FcB1; assay type: functional, organism-based
# [16] = system: Plasmodium yoelii nigeriensis; test: Antiplasmodial activity against Plasmodium yoelii nigeriensis infected in sc dosed mouse assessed as reduction in parasitemia; assay type: functional; conditions: for ED50 / ED90: Plasmodium yoelii
# [17] = system: Plasmodium falciparum; test: Antiplasmodial activity against Plasmodium falciparum F-32; assay type: functional, organism-based
# [18] = system: Plasmodium falciparum; test: Antiplasmodial activity against Plasmodium falciparum FcM29; assay type: functional, organism-based
# [19] = system: Plasmodium falciparum; test: Antiplasmodial activity against Plasmodium falciparum Nigerian; assay type: functional, organism-based
# [20] = system: Plasmodium vinckei; test: Antimalarial activity against Plasmodium vinckei infected in ip dosed mouse assessed as reduction in parasitemia relative to control; assay type: functional; design: scale not given: the % may be the effect or the level left
# [21] = system: Plasmodium vinckei; test: Antimalarial activity against Plasmodium vinckei infected in po dosed mouse assessed as reduction in parasitemia relative to control; assay type: functional; design: scale not given: the % may be the effect or the level left
# [22] = system: Plasmodium vinckei; test: Antimalarial activity against Plasmodium vinckei infected in ip dosed mouse assessed as reduction in parasitemia; assay type: functional
# [23] = system: Plasmodium vinckei; test: Antimalarial activity against Plasmodium vinckei infected in po dosed mouse assessed as reduction in parasitemia; assay type: functional
# [24] = system: Plasmodium falciparum; test: Antiplasmodial activity against Plasmodium falciparum 3D7; assay type: functional, organism-based
# [25] = system: Plasmodium falciparum; test: Antiplasmodial activity against Plasmodium falciparum K1; assay type: functional, organism-based; conditions: Plasmodium falciparum, K1; read-out: EC50
# [26] = system: Plasmodium falciparum; test: Antiplasmodial activity against Plasmodium falciparum DD2; assay type: functional, organism-based
# [27] = system: Plasmodium berghei; test: Antiplasmodial activity against Plasmodium berghei infected in mouse assessed as reduction in parasitemia at 65 mg/kg, sc measured after 4 days post treatment relative to control; assay type: functional; design: scale not given: the % may be the effect or the level left; conditions: time 4 day
# [28] = system: Plasmodium berghei; test: Antiplasmodial activity against Plasmodium berghei infected in mouse assessed as reduction in parasitemia at 35 microg/kg, sc measured after 4 days post treatment relative to control; assay type: functional; design: scale not given: the % may be the effect or the level left; conditions: dose 35 µg/kg, time 4 day
# [29] = system: Plasmodium berghei; test: Antiplasmodial activity against Plasmodium berghei infected in mouse assessed as reduction in parasitemia by measuring survival rate at 35 microg/kg, sc measured after 41 days of post infection relative to control; assay type: functional; conditions: 984 h, dose 35 µg/kg, time 41 day
# [30] = system: Plasmodium falciparum; test: Antiplasmodial activity against Plasmodium falciparum W2; assay type: functional, organism-based
# [31] = system: HeLa; test: Antiproliferative activity against human HeLa cells assessed as cell growth inhibition; assay type: functional, cell-based; conditions: Homo sapiens, HeLa
# [32] = system: Hemozoin; test: Inhibition of Beta-hematin in Plasmodium falciparum
# [33] = system: Plasmodium falciparum; test: Antimalarial activity against erythrocytic stage chloroquine sensitive Plasmodium falciparum 3D7 infected in mouse assessed as reduction in parasitemia at 15 mg/kg/day, po qd measured after 4 days by Giemsa staining based analysis relative to control; assay type: functional; design: scale not given: the % may be the effect or the level left; conditions: time 4 day
# [34] = system: Plasmodium falciparum; test: Antimalarial activity against erythrocytic stage chloroquine sensitive Plasmodium falciparum 3D7 infected in mouse assessed as reduction in parasitemia at 43 mg/kg/day, po qd measured after 4 days by Giemsa staining based analysis relative to control; assay type: functional; design: scale not given: the % may be the effect or the level left; conditions: time 4 day
# [35] = system: Plasmodium falciparum; test: Antimalarial activity against erythrocytic stage chloroquine sensitive Plasmodium falciparum W2 infected in mouse assessed as reduction in parasitemia at 43 mg/kg/day, po qd measured after 4 days by Giemsa staining based analysis relative to control; assay type: functional; design: scale not given: the % may be the effect or the level left; conditions: time 4 day
# [36] = system: Plasmodium falciparum; test: Antiplasmodial activity against Plasmodium falciparum TM91C235; assay type: functional, organism-based
# [37] = Inhibition of Plasmodium falciparum falcipain-2
# [38] = system: Plasmodium falciparum; test: Antiplasmodial activity against Plasmodium falciparum NF54; assay type: functional, organism-based
# [39] = system: Plasmodium falciparum; test: Antiplasmodial activity against Plasmodium falciparum gametocytes assessed as inhibition of gametocyte activation by [3H]hypoxanthine incorporation assay; assay type: functional, organism-based
# [40] = system: Plasmodium falciparum; test: Antimalarial activity against erythrocytic stage chloroquine sensitive Plasmodium falciparum 3D7 infected in mouse assessed as reduction in parasitemia at 4 mg/kg/day, po qd measured after 4 days by Giemsa staining based analysis relative to control; assay type: functional; design: scale not given: the % may be the effect or the level left; conditions: time 4 day
# [41] = system: Plasmodium falciparum; test: Antimalarial activity against erythrocytic stage chloroquine sensitive Plasmodium falciparum W2 infected in mouse assessed as reduction in parasitemia at 4 mg/kg/day, po qd measured after 4 days by Giemsa staining based analysis relative to control; assay type: functional; design: scale not given: the % may be the effect or the level left; conditions: time 4 day
# [42] = system: Plasmodium falciparum; test: Antimalarial activity against erythrocytic stage chloroquine sensitive Plasmodium falciparum W2 infected in mouse assessed as reduction in parasitemia at 54 mg/kg/day, po qd measured after 4 days by Giemsa staining based analysis relative to control; assay type: functional; design: scale not given: the % may be the effect or the level left; conditions: time 4 day
structure (smiles),measurement,setting,value
CC1(C)COC(C2CCC(NC3CCC(Nc4ccnc5cc(Cl)ccc45)CC3)CC2)OO1 (stereo unspecified),IC50,[1],24 nM
same,IC50,[2],12 nM
same,IC50,[3],15 nM
same,IC50,[4],15 nM
same,IC50,[5],10 nM
same,IC50,[6],7 nM
same,IC50,[7],13 nM
same,ED100,[8],30 mg/kg/day
same,ED100,[9],32 mg/kg/day
same,Activity,[10],77%
same,Activity,[11],100%
same,Activity,[12],96%
same,IC50,[13],19.8 nM
same,IC90,[13],29.3 nM
same,IC99,[13],0.0448 µM
same,MIC,[13],0.0472 µM
CC(C)C1=C[C@H]2OC3(CCC(NCCNc4cc(Cl)cc5cccnc45)CC3)OO[C@@]2(C)CC1.O=C(O)CC(O)(CC(=O)O)C(=O)O.O=C(O)CC(O)(CC(=O)O)C(=O)O (stereo partly specified),CD50,[14],22 mg/kg/day
same,CD90,[14],44 mg/kg/day
same,ED50,[14]; Plasmodium yoelii,15 mg/kg/day
same,ED90,[14]; Plasmodium yoelii,23 mg/kg/day
same,IC50,[15],4 nM
same,CD50,[16],3 mg/kg/day
same,CD90,[16],12 mg/kg/day
same,ED50,[16],2 mg/kg/day
same,ED90,[16],5 mg/kg/day
same,IC50,[17],4 nM
same,IC50,[18],4 nM
same,IC50,[19],4 nM
same,Activity,[20],50%
same,Activity,[21],50%
same,ED50,[22],5 mg/kg/day
same,ED50,[23],18 mg/kg/day
C[C@H]1[C@H](OC(=O)CCC(=O)CCNc2ccnc3cc(Cl)ccc23)O[C@@H]2O[C@]3(C)CC[C@H]4[C@H](C)CC[C@@H]1[C@@]24OO3,EC50,[24]; read-out: EC50,4.5 nM
same,EC50,[25],1.7 nM
same,EC50,[26],2.3 nM
same,Activity,[27],>99%
same,Activity,[28],95.2%
same,survival at 0.035 mg/kg,[29],80%
CCN(CC)CCCC(C)Nc1ccnc2cc(Cl)ccc12 (stereo unspecified) [CHLOROQUINE],IC90,[30],18.6 nM
same,IC50,[31],8540 nM
same,IC50,[32],1.91 equiv
same,CD50,[16],7 mg/kg/day
same,CD90,[16],23 mg/kg/day
same,ED50,[16],5 mg/kg/day
same,ED90,[16],23 mg/kg/day
same,ED100,[8],>100 mg/kg/day
same,ED100,[9],16 mg/kg/day
same,IC90,[13],301 nM
same,IC99,[13],0.531 µM
same,Activity,[33],100%
same,Activity,[34],100%
same,Activity,[35],15%
same,IC90,[36],153 nM
CC(C)CN(NC(=O)C1CCC2(CC1)OOC1(OO2)C2CC3CC(C2)CC1C3)c1nc(C#N)ncc1Cl (stereo unspecified),IC50,[30],9.8 nM
same,IC50,[24],9.8 nM
same,IC50,[37],3.4 nM
C[C@H]1[C@H](OC(=O)CCC(=O)O)O[C@@H]2O[C@@]3(C)CC[C@H]4[C@H](C)CC[C@@H]1[C@@]24OO3 [ARTESUNATE],IC50,[38],< 5.2 nM
same,IC50,[39],300000 nM
same,ED100,[8],100 mg/kg/day
same,ED100,[9],32 mg/kg/day
same,IC50,[13],2.34 nM
same,IC90,[13],6.46 nM
same,IC99,[13],0.0195 µM
same,Activity,[40],28%
same,Activity,[41],89%
same,Activity,[42],100%
